Test results taken from ChEMBL document CHEMBL1671792, “Conformationally constrained farnesoid X receptor (FXR) agonists: heteroaryl replacements of the naphthalene” (Bioorg Med Chem Lett, 2011).

What was measured:
Mus musculus [1] = assay: Antidiabetic activity in diet-induced obese mouse assessed as total cholesterol level at 30 mg/kg, po for 4 weeks (reference value: 140.0 +/-2.8 mg/dL); assay type: functional
Mus musculus [2] = assay: Antidiabetic activity in diet-induced obese mouse assessed as change in body weight at 10 mg/kg, po for 4 weeks measured after 4 weeks (reference value: 30.3+/-0.8 g); assay type: functional
Mus musculus [3] = assay: Antidiabetic activity in diet-induced obese mouse assessed as serum insulin level at 10 mg/kg, po for 4 weeks (reference value: […]); assay type: functional
Homo sapiens [4] = organism: Homo sapiens; assay: Selectivity ratio of EC50 for human FXR to EC50 for human RORalpha
[5] = Clearance in iv dosed cynomolgus monkey; assay type: ADME, organism-based, Macaca fascicularis; conditions: in vivo
Mus musculus [6] = assay: Antidiabetic activity in diet-induced obese mouse assessed as triglyceride level at 30 mg/kg, po for 4 weeks (reference value: 54.4 +/-1.5 mg/dL); assay type: functional
Mus musculus [7] = assay: Antidiabetic activity in diet-induced obese mouse assessed as triglyceride level at 10 mg/kg, po for 4 weeks (reference value: 54.4 +/-1.5 mg/dL); assay type: functional
Mus musculus [8] = assay: Antidiabetic activity in diet-induced obese mouse assessed as beta-hydroxybutyrate level at 10 mg/kg, po for 4 weeks (reference value: 1.7 +/-0.1 mg/dL); assay type: functional
Mus musculus [9] = assay: Antidiabetic activity in diet-induced obese mouse assessed as change in body weight at 30 mg/kg, po for 4 weeks measured after 2 weeks (reference value: 29.6+/-0.9 g); assay type: functional
Bile acid receptor = target: T1, Bile acid receptor (Homo sapiens, UniProt Q96RI1); assay: Agonist activity at human FXR LBD iexpressed in monkey CV-1 cells assessed as transactivation of luciferase reporter gene expression; assay type: functional, cell-based
T1 sequence (Q96RI1 whole entry): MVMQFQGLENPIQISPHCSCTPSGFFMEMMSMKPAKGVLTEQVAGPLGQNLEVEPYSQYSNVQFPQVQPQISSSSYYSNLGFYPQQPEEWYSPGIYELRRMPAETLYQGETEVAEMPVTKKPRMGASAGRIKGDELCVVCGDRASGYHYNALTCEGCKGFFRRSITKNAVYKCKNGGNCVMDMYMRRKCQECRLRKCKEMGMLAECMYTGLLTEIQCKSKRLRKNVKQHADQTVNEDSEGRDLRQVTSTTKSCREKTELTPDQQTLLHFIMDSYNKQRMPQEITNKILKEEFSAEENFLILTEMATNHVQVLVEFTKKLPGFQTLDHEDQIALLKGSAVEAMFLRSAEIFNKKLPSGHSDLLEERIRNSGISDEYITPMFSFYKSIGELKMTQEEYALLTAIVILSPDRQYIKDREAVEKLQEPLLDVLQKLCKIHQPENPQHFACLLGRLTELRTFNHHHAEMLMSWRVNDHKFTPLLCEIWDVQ

[10] = Half life in iv dosed cynomolgus monkey; assay type: ADME, organism-based, Macaca fascicularis; conditions: in vivo
Cytochrome P450 2C9 = Cytochrome P450 2C9 (Homo sapiens, UniProt P11712); assay: Inhibition of CYP2C9 in human liver microsome; assay type: microsomes
[11] = Clearance in iv dosed Beagle dog; assay type: ADME, organism-based, Canis lupus familiaris; conditions: in vivo
Mus musculus [12] = assay: Antidiabetic activity in diet-induced obese mouse assessed as triglyceride level at 100 mg/kg, po for 4 weeks (reference value: 54.4 +/-1.5 mg/dL); assay type: functional
Mus musculus [13] = assay: Antidiabetic activity in diet-induced obese mouse assessed as serum glucose level at 10 mg/kg, po for 4 weeks (reference value: 316.5 +/-13.2 mg/dL); assay type: functional
[14] = Clearance in iv dosed mouse; assay type: ADME, organism-based; conditions: in vivo
Mus musculus [15] = assay: Antidiabetic activity in diet-induced obese mouse assessed as NEFA level at 100 mg/kg, po for 4 weeks (reference value: 0.46 +/-0.02 mEq/dL); assay type: functional
[16] = Volume of distribution at steady state in iv dosed Beagle dog; assay type: ADME, organism-based, Canis lupus familiaris; conditions: in vivo, read-out: Vdss
Mus musculus [17] = assay: Antidiabetic activity in diet-induced obese mouse assessed as glycerol level at 30 mg/kg, po for 4 weeks (reference value: 11.0 +/-1.3 mg/dL); assay type: functional
[18] = Oral bioavailability in rat; assay type: ADME, organism-based; conditions: in vivo
Mus musculus [19] = assay: Antidiabetic activity in diet-induced obese mouse assessed as serum insulin level at 100 mg/kg, po for 4 weeks (reference value: […]); assay type: functional
[20] = target: T2, Bile acid receptor (Homo sapiens) (UniProt Q96RI1); assay: Agonist activity at human FXR LBD iexpressed in monkey CV-1 cells assessed as transactivation of luciferase reporter gene expression relative to GW 4064; assay type: functional, cell-based; parameters: concentration or dose not given beside the values
T2 sequence (whole entry): T1 sequence (Q96RI1 whole entry)

Mus musculus [21] = assay: Antidiabetic activity in diet-induced obese mouse assessed as change in body weight at 30 mg/kg, po for 4 weeks measured after 3 weeks (reference value: 29.6+/-0.9 g); assay type: functional
[22] = target: T2, Bile acid receptor (Homo sapiens); assay: Agonist activity at human FXR LBD assessed as SRC1 peptide recruitment by FRET assay relative to GW 4064; assay type: functional
Homo sapiens [23] = organism: Homo sapiens; assay: Selectivity ratio of EC50 for human FXR to EC50 for human LXRalpha
Cytochrome P450 1A2 = target: T3, Cytochrome P450 1A2 (Homo sapiens, UniProt P05177); assay: Inhibition of CYP1A2 in human liver microsome; assay type: microsomes
T3 sequence (P05177 whole entry): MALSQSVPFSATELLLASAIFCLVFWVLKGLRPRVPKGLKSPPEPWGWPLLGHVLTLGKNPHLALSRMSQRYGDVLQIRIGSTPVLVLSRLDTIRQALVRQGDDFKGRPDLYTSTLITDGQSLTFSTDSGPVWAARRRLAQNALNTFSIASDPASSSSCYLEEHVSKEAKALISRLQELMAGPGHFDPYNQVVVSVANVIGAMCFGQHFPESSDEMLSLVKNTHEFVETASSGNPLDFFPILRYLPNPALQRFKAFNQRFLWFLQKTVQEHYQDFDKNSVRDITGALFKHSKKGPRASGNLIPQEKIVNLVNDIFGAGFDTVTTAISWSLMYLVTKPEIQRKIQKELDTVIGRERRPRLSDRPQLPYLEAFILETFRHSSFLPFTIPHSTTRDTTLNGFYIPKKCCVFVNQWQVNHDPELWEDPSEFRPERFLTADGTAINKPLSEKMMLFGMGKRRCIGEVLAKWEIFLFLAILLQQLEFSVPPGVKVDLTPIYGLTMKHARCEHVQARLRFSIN

Mus musculus [24] = assay: Antidiabetic activity in diet-induced obese mouse assessed as total cholesterol level at 10 mg/kg, po for 4 weeks (reference value: 140.0 +/-2.8 mg/dL); assay type: functional

Chain of Cytochrome P450 2C9 (P11712 whole entry): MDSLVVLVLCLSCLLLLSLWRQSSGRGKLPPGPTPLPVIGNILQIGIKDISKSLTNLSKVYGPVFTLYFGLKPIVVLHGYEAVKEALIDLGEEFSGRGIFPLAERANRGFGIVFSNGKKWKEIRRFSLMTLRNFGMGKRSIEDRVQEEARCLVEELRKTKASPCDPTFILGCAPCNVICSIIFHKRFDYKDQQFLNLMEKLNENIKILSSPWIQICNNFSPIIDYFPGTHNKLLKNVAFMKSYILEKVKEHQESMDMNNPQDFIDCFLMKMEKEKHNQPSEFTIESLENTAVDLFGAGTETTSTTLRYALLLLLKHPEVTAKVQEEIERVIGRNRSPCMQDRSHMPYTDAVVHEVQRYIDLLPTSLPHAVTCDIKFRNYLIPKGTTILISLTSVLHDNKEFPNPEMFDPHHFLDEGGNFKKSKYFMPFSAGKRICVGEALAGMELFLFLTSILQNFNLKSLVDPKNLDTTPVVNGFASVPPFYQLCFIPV

Ratio EC50 (Homo sapiens [4]): 100
clearance [5]: 0.186 L/h/kg
EC50 (Bile acid receptor): 0.05 µM
half-life [10]: 2 h
IC50 (Cytochrome P450 2C9): 4.4 µM
clearance [11]: 0.264 L/h/kg
clearance [14]: 1.38 L/h/kg
Vd [16]: 0.31 L/kg
bioavailability [18]: 23%
Activity [20]: 102%
Activity [22]: 105%
Ratio EC50 (Homo sapiens [23]): 100
IC50 (Cytochrome P450 1A2): 21 µM
Structure (SMILES): CC(C)c1onc(-c2c(Cl)cccc2Cl)c1COc1ccc(-c2ccc3nc(C(=O)O)ccc3c2)cc1
Activity (Mus musculus [1]): 99.6 mg/dL
Activity (Mus musculus [2]): 29 g
Activity (Mus musculus [3]): 0.63 ng/mL
Activity (Mus musculus [6]): 51.1 mg/dL
Activity (Mus musculus [7]): 55.8 mg/dL
Activity (Mus musculus [8]): 1.7 mg/dL
Activity (Mus musculus [9]): 27.8 g
Activity (Mus musculus [12]): 47.4 mg/dL
Activity (Mus musculus [13]): 313 mg/dL
Activity (Mus musculus [15]): 0.65 mEq/dL
Activity (Mus musculus [17]): 10 mg/dL
Activity (Mus musculus [19]): 0.34 ng/mL
Activity (Mus musculus [21]): 27.5 g
Activity (Mus musculus [24]): 108.5 mg/dL
